Results on 11 compounds are retold here after patent US9023985B2, “Glucagon composition” (Arecor Ltd., priority 2010, dated 2015).

A short description of data set [1]: Visual assessment of glucagon formulations with different tonicity modifiers, 50° C. incubation. The settings on record: glucagon 1 mg/ml, 5 mM acetate, 0.075% benzethonium chloride, pH 5.5.
Protocol: In some cases, the composition contained a specified concentration of an antioxidant. The effect of the nature and the concentration of the tonicity modifier on the physical stability (i.e., gel formation and/or aggregation) was determined by visual assessment following storage.
In the first experiment, the effects of mannitol and 1,2-propanediol as tonicity modifiers modifiers were compared at 50° C.
In another experiment, the effects of mannitol and glycerol as tonicity modifiers were compared at 50° C.
In another experiment, the effects of mannitol and trehalose as tonicity modifiers were compared at 50° C.
A short description of data set [2]: Stability of glucagon in surfactant solutions at room temperature (RP-HPLC, gel formation). The data set is classed as physicochemical. Particulars: for Changes in the native form of glucagon (RP-HPLC) / Size of the native glucagon peak (RP-HPLC): glucagon dissolved with the surfactant, incubation at room temperature for days. The text has this:
[…]. In contrast, the size of the native peak diminished in the case of CHAPS to <10%) and in the case of TWEEN® 20 (to about 60%).
Formulating at pH>8 minimized the gel formation.

Data set [3] can be described thus: Visual assessment of glucagon formulations with and without phenol, 50° C. incubation. The class given is physicochemical. Particulars: glucagon 1 mg/ml. The procedure:
The pH of both formulations was adjusted to 5.5. […] The appearance of all formulations was noted shortly after preparation and then following storage at 50° C. for specified periods of time.

The mark [4] stands for this setting: 0 days, 1.3 mM butylated hydroxytoluene.
Setting [5] is: 6 weeks, 1.3 mM butylated hydroxytoluene.
Setting [6] is: 6 days, 1.3 mM butylated hydroxytoluene.
Where [7] appears, read: 50° C. for up to 6 weeks, 5 mM methionine.

A value given as a limit tells only on which side of the number the result lay.

On to `CC(O)CO` (stereo not drawn) [1,2-propanediol], for which, in data set [1] (50° C.), the “Onset of aggregation and gel formation compared with mannitol” value was “much earlier onset of aggregation and gel formation”. Turning to `CC(C)(C)CC(C)(C)c1ccc(OCCOCC[N+](C)(C)Cc2ccccc2)cc1` [Benzethonium chloride], in data set [2], the “Changes in the native form of glucagon (RP-HPLC)” value (“Changes in the native form” for short) is recorded as “no significant changes”. Take `C[C@H](CCC(=O)NCCC[N+](C)(C)CCCS(=O)(=O)[O-])[C@H]1CC[C@H]2[C@@H]3[C@H](O)C[C@@H]4C[C@H](O)CC[C@]4(C)[C@H]3C[C@H](O)[C@]12C` [CHAPS]: in data set [2], the “Size of the native glucagon peak (RP-HPLC)” value is on record as less than 10%.

For `CCCCCCCCCCCCCCCC[N+](C)(C)C.[Br-]` [Cetrimide, cetyl trimethylammonium bromide], the “Changes in the native form” value in data set [2] is reported as “no significant changes”. As for `OCC(O)CO` [Glycerol (250 mM), Glycerol], the “Visual assessment (50° C. incubation), extent of visible precipitation” value was 1 in data set [1] (setting [4]), 2 in data set [1] (setting [5]) and 1 in data set [1] (setting [6]). For the same compound, the “Visual appearance after incubation” value in data set [1] (50° C. for 6 weeks, 1.3 mM butylated hydroxytoluene) is recorded as “signs of precipitation”. For the compound `OC[C@@H](O)[C@@H](O)[C@H](O)[C@H](O)CO` [Mannitol (250 mM), Mannitol], the “Visual assessment (50° C. incubation), extent of visible precipitation” value in data set [1] (setting [4]), in data set [1] (setting [5]) and in data set [1] (setting [6]) was 1 in each case. In addition, the “Visual appearance after incubation” value in data set [1] (setting [7]) is given as “remained as a clear liquid”.

On to `Oc1ccccc1` [phenol], for which the “Gel formation and/or aggregation on incubation” value in data set [3] was “delay aggregation and gel formation considerably farther”.

Turning to `OC[C@H]1O[C@H](O[C@H]2O[C@H](CO)[C@@H](O)[C@H](O)[C@H]2O)[C@H](O)[C@@H](O)[C@@H]1O` [trehalose (250 and 500 mM), trehalose], the “Visual appearance after incubation” value in data set [1] (setting [7]) is “remained as a clear liquid”. As for Benzalkonium chloride, the “Changes in the native form” value in data set [2] is recorded as “no significant changes”. On to Sodium deoxycholate, for which the “Changes in the native form” value in data set [2] is “no significant changes”. Besides, the “Gel formation of dissolved glucagon” value in data set [2] (prepared at pH 7.5, incubation at room temperature) is “tendency to form gels”. For the compound TWEEN ® 20, the “Size of the native glucagon peak (RP-HPLC)” value in data set [2] was “about 60%”.
